“Also recorded” adds a separate entry of the source. Marks after values point to notes of the source that are not given here. Blank lines part the entries; values can stand above or below the compound they belong to.
What was measured:
[1] = test system: Caco-2 cell monolayers; conditions: ref Lu et al., 2008, Liu et al., 2009, Hu et al., 2014, Bowles et al., 2017, cited from earlier work; for Papp(apical→basolateral) / Papp(basolateral→apical): Caco-2 cell monolayers, from literature; for apparent permeability in Caco-2 cell monolayers: previous results
[2] = Aqueous solubility test (vortexing in water); format: physicochemical; conditions: for solubility at 5 min: thermodynamic from solid, determined, water, 25 °C, 1 atm; for solubility in water (in words): water at 25 °C
Experimental: Aqueous solubility (S) test of the 17 ingredients was performed by vortexing 10 mg of each ingredient in […] water in a test tube at ambient temperature and 1 atm. After vortexing for 5 min, if the solution is clear, the tested object will be considered as soluble in water. In silico assessment of the physicochemical properties governing permeation and intestinal absorption was carried out for the 17 ingredients studied. Theory aqueous solubility (S) was calculated with ALOGPS 2.1 online software via the Virtual Computational Chemistry Laboratory service (Chemoinformatics Group, Neuherberg, Germany) (VCCLAB^1). The octanol–water partition coefficient (cLogP), the total hydrogen bond count (donors and acceptors), and topological polar surface area (TPSA) were determined using the Molinspiration Property Calculator (Molinspiration Cheminformatics, Bratislava, Slovak Republic^2). Lipinski’s rule of 5 was used to predict the permeability of the compound ([Lipinski et al., 2001]).

[3] = Stability tests in rat plasma (QC samples, HPLC-MS); conditions: n=5
Source text: Accuracy and precision were expressed by relative error (RE) and coefficient of variance (RSD), respectively.

[4] = test system: isoprenaline-induced MI in mice; assay: In vivo anti-MI study: isoprenaline-induced myocardial injury (ECG, H&E histology); conditions: for Histopathology of heart tissue (H&E): 40 mg/kg p.o. for 7 days, isoprenaline-induced MI, 40 mg/kg; for ECG (lead II) findings on the fifth day of the trial: 40 mg/kg p.o., isoprenaline 5 mg/kg on days 4 and 5
[5] = Multiple component PK study in rat plasma after p.o. GDDP (HPLC-MS); conditions: for determination in rat plasma at the planned successive PK time points / detection in rat plasma: GDDP 0.8 g/kg p.o.; for determination in rat plasma at the planned successive PK time points: 5, 10, 15, 30, 45, 60, and 120 min, LOQ 1.0–1.4 ng/mL; for detection in rat plasma: at 5, 10, 15, 30, 45, or 60 min, LOD 0.5–0.7 ng/mL; for AUC(0-inf) / AUC(0-t) / MRT inf / MRT last / Tmax / Cmax / half-life: Sprague-Dawley, rat, plasma, po
[6] = 24h in auto-sampler vials, spiked 2 ng/mL
[7] = 24h in auto-sampler vials, spiked 400 ng/mL
[8] = 24h in auto-sampler vials, spiked 1600 ng/mL
[9] = Placing plasma for 6h at 4°C, spiked 2 ng/mL
[10] = Placing plasma for 6h at 4°C, spiked 400 ng/mL
[11] = Placing plasma for 6h at 4°C, spiked 1600 ng/mL
[12] = three freeze-thaw cycles, rat plasma, spiked 2 ng/mL
[13] = three freeze-thaw cycles, rat plasma, spiked 400 ng/mL
[14] = three freeze-thaw cycles, rat plasma, spiked 1600 ng/mL
[15] = 0.4 g/kg, Cmax, rat plasma, GDDP 0.4 g/kg p.o. (Low dose group), n=3
[16] = 0.4 g/kg, t1/2 β, rat plasma, GDDP 0.4 g/kg p.o. (Low dose group), n=3
[17] = 0.8 g/kg, Cmax (high / low plasma drug concentrations), rats, GDDP 0.4 and 0.8 g/kg p.o., classification
[18] = 0.8 g/kg, Cmax, rat plasma, GDDP 0.8 g/kg p.o. (High dose group), n=3
[19] = 0.8 g/kg, t1/2 β (fast / slow elimination type), rats, GDDP 0.4 and 0.8 g/kg p.o., classification
[20] = 0.8 g/kg, t1/2 β, rat plasma, GDDP 0.8 g/kg p.o. (High dose group), n=3
[21] = rat plasma, GDDP 0.4 g/kg p.o. (Low dose group), n=3
[22] = rat plasma, GDDP 0.8 g/kg p.o. (High dose group), n=3

solubility at 5 min [2]: > 10000 µg/mL
Compound: O=C(O)/C=C/c1ccc(O)c(O)c1 [CA, caffeic acid]
Papp(apical→basolateral) [1]: 4.35^b ×10^-6 cm/s | Papp(basolateral→apical) [1]: 7.74^b ×10^-6 cm/s | apparent permeability in Caco-2 cell monolayers [1]: ≥ 10^-6 cm/s

Compound: C[C@H]1COC2=C1C(=O)C(=O)c1c2ccc2c1CCCC2(C)C [CTS, cryptotanshinone]
Stability: Measured [3, 6]: 1.79 ± 0.36 ng/mL | Stability: RE [3, 6]: -10.32% | Stability: Measured [3, 7]: 478.43 ± 27.22 ng/mL | Stability: RE [3, 7]: 19.61% | Stability: Measured [3, 8]: 1852.38 ± 164.86 ng/mL | Stability: RE [3, 8]: 15.77% | Stability: Measured [3, 9]: 1.79 ± 0.26 ng/mL | Stability: RE [3, 9]: -10.47% | Stability: Measured [3, 10]: 438.37 ± 50.69 ng/mL | Stability: RE [3, 10]: 9.59% | Stability: Measured [3, 11]: 1890.21 ± 223.22 ng/mL | Stability: RE [3, 11]: 18.14% | Stability: Measured [3, 12]: 1.62 ± 0.22 ng/mL | Stability: RE [3, 12]: -19.00% | Stability: Measured [3, 13]: 457.79 ± 26.04 ng/mL | Stability: RE [3, 13]: 14.45% | Stability: Measured [3, 14]: 1871.43 ± 321.89 ng/mL | Stability: RE [3, 14]: 16.96% | Papp(apical→basolateral) [1]: 1.59^d ×10^-6 cm/s | Papp(basolateral→apical) [1]: 8.36^d ×10^-6 cm/s | apparent permeability in Caco-2 cell monolayers [1]: ≥ 10^-6 cm/s | Histopathology of heart tissue (H&E) [4]: remarkably severe histological damage with extensive myocardial lysis and architecture wrecking; also recorded: extremely severe histological damage with extensive myocardial lysis and architecture wrecking | ECG (lead II) findings on the fifth day of the trial [4]: T waves reversed or decreased | determination in rat plasma at the planned successive PK time points [5]: could be determined | detection in rat plasma [5]: could be detected | AUC(0-inf) ([5]; 0.4 g/kg): 1.72 ± 1.24 ng·h/mL | AUC(0-t) ([5]; 0.4 g/kg): 0.84 ± 0.03 ng·h/mL | MRT inf ([5]; 0.4 g/kg): 41.4 ± 39.6 min | MRT last ([5]; 0.4 g/kg): 13.8 ± 1.8 min | Tmax ([5]; 0.4 g/kg): 15 min | Cmax [5, 15]: 2.33 ± 0.49 ng/mL | half-life [5, 16]: 27 ± 27 min | AUC(0-inf) ([5]; 0.8 g/kg): 3.24 ± 1.09 ng·h/mL | AUC(0-t) ([5]; 0.8 g/kg): 2.76 ± 1.18 ng·h/mL | MRT inf ([5]; 0.8 g/kg): 50.4 ± 18 min | MRT last ([5]; 0.8 g/kg): 33.6 ± 13.2 min | Tmax ([5]; 0.8 g/kg): 15 min | Cmax [5, 17]: < 10 ng/mL | Cmax [5, 18]: 4.09 ± 1.47 ng/mL | half-life [5, 19]: < 120 min | half-life [5, 20]: 34.2 ± 15.6 min | Cltot [5, 21]: 3485.3 ± 2517.8 mL/min/kg | Cltot [5, 22]: 2924 ± 826.2 mL/min/kg | solubility in water (in words) [2]: insoluble

Compound: Cc1cccc2c3c(ccc12)C1=C(C(=O)C3=O)[C@@H](C)CO1 [DHTS I, dihydrotanshinone I]
Stability: Measured [3, 6]: 2.21 ± 0.23 ng/mL | Stability: RE [3, 6]: 10.31% | Stability: Measured [3, 7]: 464.67 ± 43.51 ng/mL | Stability: RE [3, 7]: 16.17% | Stability: Measured [3, 8]: 1644.43 ± 109.72 ng/mL | Stability: RE [3, 8]: 2.78% | Stability: Measured [3, 9]: 2.23 ± 0.06 ng/mL | Stability: RE [3, 9]: 11.41% | Stability: Measured [3, 10]: 456.85 ± 38.51 ng/mL | Stability: RE [3, 10]: 14.21% | Stability: Measured [3, 11]: 1735.14 ± 230.11 ng/mL | Stability: RE [3, 11]: 8.45% | Stability: Measured [3, 12]: 2.015 ± 0.18 ng/mL | Stability: RE [3, 12]: 2.73% | Stability: Measured [3, 13]: 437.97 ± 37.90 ng/mL | Stability: RE [3, 13]: 9.49% | Stability: RE [3, 14]: 0.88% | Papp(apical→basolateral) [1]: 1.49^d ×10^-6 cm/s | Papp(basolateral→apical) [1]: 8.28^d ×10^-6 cm/s | apparent permeability in Caco-2 cell monolayers [1]: ≥ 10^-6 cm/s | Histopathology of heart tissue (H&E) [4]: remarkably severe histological damage with extensive myocardial lysis and architecture wrecking; also recorded: extremely severe histological damage with extensive myocardial lysis and architecture wrecking | ECG (lead II) findings on the fifth day of the trial [4]: T waves reversed or decreased | determination in rat plasma at the planned successive PK time points [5]: could be determined | detection in rat plasma [5]: could be detected | AUC(0-inf) ([5]; 0.4 g/kg): 14.2 ± 17.2 ng·h/mL | AUC(0-t) ([5]; 0.4 g/kg): 12.1 ± 14.4 ng·h/mL | MRT inf ([5]; 0.4 g/kg): 416 ± 443 min | MRT last ([5]; 0.4 g/kg): 310 ± 313 min | Tmax ([5]; 0.4 g/kg): 82.8 ± 52.8 min | Cmax [5, 15]: 1.9 ± 1.57 ng/mL | half-life [5, 16]: 161 ± 143 min | AUC(0-inf) ([5]; 0.8 g/kg): 16.1 ± 2.84 ng·h/mL | AUC(0-t) ([5]; 0.8 g/kg): 14.7 ± 2.51 ng·h/mL | MRT inf ([5]; 0.8 g/kg): 436 ± 208 min | MRT last ([5]; 0.8 g/kg): 303 ± 122 min | Tmax ([5]; 0.8 g/kg): 49.8 ± 8.4 min | Cmax [5, 17]: < 10 ng/mL | Cmax [5, 18]: 3.1 ± 0.49 ng/mL | half-life [5, 19]: > 156 min | half-life [5, 20]: 334 ± 179 min | Cltot [5, 21]: 101 ± 122 mL/min/kg | Cltot [5, 22]: 47.7 ± 7.67 mL/min/kg | solubility in water (in words) [2]: insoluble

Compound: O=C(O)C(O)Cc1ccc(O)c(O)c1 (stereo not shown) [DSS, danshensu]
detection in rat plasma at more than 15 min after administration ([5]; GDDP 0.4 and 0.8 g/kg B.W.): could not be detected | detection in rat plasma [5]: could be detected | plasma level ([5]; rats, GDDP 0.4 and 0.8 g/kg, more than 15 min after administration, below LOD): < 0.5 ng/mL | solubility at 5 min [2]: > 10000 µg/mL

solubility at 5 min [2]: > 10000 µg/mL
Compound: O=C(/C=C/c1ccc(O)c2c1[C@H](C(=O)O)[C@@H](c1ccc(O)c(O)c1)O2)O[C@H](Cc1ccc(O)c(O)c1)C(=O)O [LA, lithospermic acid]
Papp(apical→basolateral) [1]: 0.0816^a ×10^-6 cm/s | Papp(basolateral→apical) [1]: 0.0413^a ×10^-6 cm/s

detection in rat plasma [5]: could be detected | solubility at 5 min [2]: > 10000 µg/mL
Compound: O=C(O)c1ccc(O)c(O)c1 [PCA, protocatechuic acid]
Papp(apical→basolateral) [1]: 4.52^b ×10^-6 cm/s | Papp(basolateral→apical) [1]: 6.91^b ×10^-6 cm/s | apparent permeability in Caco-2 cell monolayers [1]: ≥ 10^-6 cm/s

Compound: O=Cc1ccc(O)c(O)c1 [PCAL, protocatechuic aldehyde]
Papp(apical→basolateral) [1]: 12.1^a ×10^-6 cm/s | Papp(basolateral→apical) [1]: 21.8^a ×10^-6 cm/s | apparent permeability in Caco-2 cell monolayers [1]: ≥ 10^-6 cm/s | detection in rat plasma [5]: could be detected | solubility at 5 min [2]: > 10000 µg/mL

solubility at 5 min [2]: > 10000 µg/mL
Compound: O=C(/C=C/c1ccc(O)c(O)c1)O[C@H](Cc1ccc(O)c(O)c1)C(=O)O [RA, rosmarinic acid]
Papp(apical→basolateral) [1]: 0.523^a ×10^-6 cm/s | Papp(basolateral→apical) [1]: 0.550^a ×10^-6 cm/s

detection in rat plasma [5]: could be detected | solubility at 5 min [2]: > 10000 µg/mL
Compound: CC(C)=CCC[C@](C)(O[C@@H]1O[C@H](CO)[C@@H](O)[C@H](O)[C@H]1O)[C@H]1CC[C@]2(C)[C@@H]1[C@H](O)C[C@@H]1[C@@]3(C)CC[C@H](O)C(C)(C)[C@@H]3[C@@H](O[C@@H]3O[C@H](CO)[C@@H](O)[C@H](O)[C@H]3O[C@@H]3O[C@@H](C)[C@H](O)[C@@H](O)[C@H]3O)C[C@]12C [Re, ginsenoside Re]
Papp(apical→basolateral) [1]: > 0.1^c ×10^-6 cm/s | Papp(basolateral→apical) [1]: > 0.1^c ×10^-6 cm/s

solubility at 5 min [2]: > 10000 µg/mL
Compound: O=C(/C=C/c1ccc(O)c(O)c1/C=C/c1ccc(O)c(O)c1)OC(Cc1ccc(O)c(O)c1)C(=O)O (stereo not shown) [SAA, SA A]
Papp(apical→basolateral) [1]: 0.0595^a ×10^-6 cm/s | Papp(basolateral→apical) [1]: 0.0554^a ×10^-6 cm/s

solubility at 5 min [2]: > 10000 µg/mL
Compound: O=C(/C=C/c1ccc(O)c2c1C(C(=O)OC(Cc1ccc(O)c(O)c1)C(=O)O)C(c1ccc(O)c(O)c1)O2)OC(Cc1ccc(O)c(O)c1)C(=O)O (stereo not shown) [SAB, SA B]
Papp(apical→basolateral) [1]: 0.0200^a ×10^-6 cm/s | Papp(basolateral→apical) [1]: 0.0377^a ×10^-6 cm/s

— paper PMC6308302, “Identification of Pharmacokinetic Markers for Guanxin Danshen Drop Pills in Rats by Combination of Pharmacokinetics, Systems Pharmacology, and Pharmacodynamic Assays” (Frontiers in Pharmacology, 2018)
